Assay results from US8093231B2, “Sulfonylethyl phosphorodiamidates” (Telik, Inc., priority 2004, dated 2012).
Read-outs that look alike come from different tables or passages of the source.

Tests used:
Type in all cases: cell-based, human
[1] = system: MX-1 (breast carcinoma); assay: Cytotoxicity/growth inhibition assay, MX-1; conditions: read-out: IC50 (MX-1)
Excerpt: (§1) The human cancer cell lines DLD-1 (colorectal adenocarcinoma), LNCap (prostate carcinoma), and OVCAR-3 (ovarian carcinoma) were obtained from the American Type Culture Collection, Manassas, Va., U.S.A., and HL-60 (promyeloid myelocytic leukemia), MX-1 (breast carcinoma), P388, and P388ADR from the National Cancer Institute, Bethesda, Md., U.S.A. Carboplatin, doxorubicin, and melphalan were obtained from Sigma-Aldrich Chemical Company, St. Louis, Mo., U.S.A. The CellTiter-Glo assay kit was obtained from Promega Corporation, Madison, Wis., U.S.A., and the Cellular DNA Cytometric Analysis Reagent Kit from Roche Diagnostics Corporation, Indianapolis, Ind., U.S.A. Lambda DNA was obtained from New England Biolabs, Beverly, Mass., U.S.A., and SYBR-Gold from Molecular Probes, Inc., Eugene, Oreg., U.S.A. The DNeasy Tissue Kit was obtained from Qiagen Inc., Valencia, Calif., U.S.A., and AmpliTaq Gold DNA polymerase and PCR reagents from Applied Biosystems, Foster City, Calif., U.S.A. All products were used in accordance with manufacturer's directions. All assays were conducted in triplicate wells, with dimethyl sulfoxide (DMSO) solvent control. The extent of cell growth was expressed as a percentage of the signal from the solvent control wells.
(§2) Log-phase cells were trypsinized, collected by centrifugation, and resuspended in a small volume of fresh medium, and the density of viable cells was determined following Trypan Blue staining. Cells were diluted in fresh media (3×10^3 cells/mL for MX-1, 3×10^3 cells/mL for DLD-1, and 6×10^3 cells/mL for LNCap cells), the test compounds (concentrations between 0.1 and 200 μM, dissolved in DMSO, 50 μL) added immediately after dilution to achieve a final DMSO concentration of 0.5%, then the suspensions added at 150 μL/well to 96-well plates, and incubated for several hours to allow attachment in the case of adherent cells. The cells were cultured for approximately three doubling times (3 days for MX-1 and 4 days for DLD-1 and LNCap). The cells were then collected by centrifugation, and 100 μL of the culture supernatant was replaced by the CellTiter-Glo reagent. After incubation for 15 minutes at room temperature, and the plate was read with a luminometer.

[2] = system: DLD-1 (colorectal adenocarcinoma); assay: Cytotoxicity/growth inhibition assay, DLD-1; conditions: read-out: IC50 (DLD-1)
Excerpt: as §1, §2

[3] = system: LNCap (prostate carcinoma); assay: Cytotoxicity/growth inhibition assay, LNCap; conditions: read-out: IC50 (LNCap)
Excerpt: as §1, §2

[4] = MX-1 cells, 3 days culture, CellTiter-Glo, 0.1-200 μM tested
[5] = DLD-1 cells, 4 days culture, CellTiter-Glo, 0.1-200 μM tested
[6] = LNCap cells, 4 days culture, CellTiter-Glo, 0.1-200 μM tested

O=P(OCCS(=O)(=O)C1CCCC1)(N(CCCl)CCCl)N(CCCl)CCCl [Compound 10A]
IC50 [1, 4]: 14.4 µM
IC50 [2, 5]: 7.7 µM
IC50 [3, 6]: 43 µM

O=P(OCCS(=O)(=O)c1ccccc1S(=O)(=O)CCOP(=O)(N(CCCl)CCCl)N(CCCl)CCCl)(N(CCCl)CCCl)N(CCCl)CCCl [Compound 10B]
IC50 [1, 4]: 10.8 µM
IC50 [2, 5]: 6.1 µM
IC50 [3, 6]: 1.9 µM

O=P(OCCS(=O)(=O)C1CCCCC1)(N(CCCl)CCCl)N(CCCl)CCCl [Compound 11A]
IC50 [1, 4]: 10.4 µM
IC50 [2, 5]: 4 µM
IC50 [3, 6]: 18.1 µM

O=P(OCCS(=O)(=O)c1cccc(S(=O)(=O)CCOP(=O)(N(CCCl)CCCl)N(CCCl)CCCl)c1)(N(CCCl)CCCl)N(CCCl)CCCl [Compound 11B]
IC50 [1, 4]: 3 µM
IC50 [2, 5]: 2.1 µM
IC50 [3, 6]: 4.5 µM

CCCCCCCCS(=O)(=O)CCOP(=O)(N(CCCl)CCCl)N(CCCl)CCCl [Compound 12A]
IC50 [1, 4]: 13.9 µM
IC50 [2, 5]: 3.5 µM
IC50 [3, 6]: 14.1 µM

O=P(OCCS(=O)(=O)c1ccc(S(=O)(=O)CCOP(=O)(N(CCCl)CCCl)N(CCCl)CCCl)cc1)(N(CCCl)CCCl)N(CCCl)CCCl [Compound 12B]
IC50 [1, 4]: 4.3 µM
IC50 [2, 5]: 1.9 µM
IC50 [3, 6]: 7.1 µM

O=P(OCCS(=O)(=O)Cc1ccccc1CS(=O)(=O)CCOP(=O)(N(CCCl)CCCl)N(CCCl)CCCl)(N(CCCl)CCCl)N(CCCl)CCCl [Compound 13B]
IC50 [1, 4]: 1.9 µM
IC50 [2, 5]: 2.3 µM
IC50 [3, 6]: 4.7 µM

O=C(O)CS(=O)(=O)CCOP(=O)(N(CCCl)CCCl)N(CCCl)CCCl [Compound 14A, 2-[[2-[[bis[bis(2-chloroethyl)amino]phosphinyl]oxy]-ethyl]sulfonyl]acetic acid]
IC50 ([1]; Homo sapiens, MX1, 72 h): 62.2 µM
IC50 ([2]; Homo sapiens, DLD-1, 96 h): 17.6 µM
IC50 ([3]; Homo sapiens, LNCaP, 96 h): ≥ 200 µM

O=P(OCCS(=O)(=O)Cc1cccc(CS(=O)(=O)CCOP(=O)(N(CCCl)CCCl)N(CCCl)CCCl)c1)(N(CCCl)CCCl)N(CCCl)CCCl [Compound 14B]
IC50 [1, 4]: 2.3 µM
IC50 [2, 5]: 3.2 µM
IC50 [3, 6]: 5.7 µM

O=P(OCCS(=O)(=O)Cc1ccc(CS(=O)(=O)CCOP(=O)(N(CCCl)CCCl)N(CCCl)CCCl)cc1)(N(CCCl)CCCl)N(CCCl)CCCl [Compound 15B]
IC50 [1, 4]: 1.4 µM
IC50 [2, 5]: 2.4 µM
IC50 [3, 6]: 4.4 µM

O=P(OCCS(=O)(=O)CCO)(N(CCCl)CCCl)N(CCCl)CCCl [Compound 16A]
IC50 [1, 4]: 13 µM
IC50 [2, 5]: 9.6 µM
IC50 [3, 6]: 36.4 µM

O=[N+]([O-])c1cc(CS(=O)(=O)CCOP(=O)(N(CCCl)CCCl)N(CCCl)CCCl)cc(CS(=O)(=O)CCOP(=O)(N(CCCl)CCCl)N(CCCl)CCCl)c1 [Compound 16B]
IC50 [1, 4]: 2.9 µM
IC50 [2, 5]: 4.5 µM
IC50 [3, 6]: 9.2 µM

CC(=O)NCCS(=O)(=O)CCOP(=O)(N(CCCl)CCCl)N(CCCl)CCCl [Compound 17A]
IC50 [1, 4]: 6.3 µM
IC50 [2, 5]: 4.2 µM
IC50 [3, 6]: 13.9 µM

Nc1cc(CS(=O)(=O)CCOP(=O)(N(CCCl)CCCl)N(CCCl)CCCl)cc(CS(=O)(=O)CCOP(=O)(N(CCCl)CCCl)N(CCCl)CCCl)c1 [Compound 17B]
IC50 [1, 4]: 6.2 µM
IC50 [2, 5]: 4.6 µM
IC50 [3, 6]: 18.6 µM

O=C(O)CCC(=O)Nc1cc(CS(=O)(=O)CCOP(=O)(N(CCCl)CCCl)N(CCCl)CCCl)cc(CS(=O)(=O)CCOP(=O)(N(CCCl)CCCl)N(CCCl)CCCl)c1 [Compound 18B]
IC50 [1, 4]: 8.4 µM
IC50 [2, 5]: 2.7 µM
IC50 [3, 6]: 49.8 µM

O=C(CS(=O)(=O)CCOP(=O)(N(CCCl)CCCl)N(CCCl)CCCl)N1CCN(Cc2ccccc2)CC1 [Compound 19A]
IC50 [1, 4]: 14.8 µM
IC50 [2, 5]: 8.1 µM
IC50 [3, 6]: 17.8 µM

NCC(=O)Nc1cc(CS(=O)(=O)CCOP(=O)(N(CCCl)CCCl)N(CCCl)CCCl)cc(CS(=O)(=O)CCOP(=O)(N(CCCl)CCCl)N(CCCl)CCCl)c1 [Compound 19B]
IC50 [1, 4]: 7.6 µM
IC50 [2, 5]: 3.8 µM
IC50 [3, 6]: 52 µM

O=C(CS(=O)(=O)CCOP(=O)(N(CCCl)CCCl)N(CCCl)CCCl)Nc1ccc([N+](=O)[O-])cc1 [Compound 20A]
IC50 [1, 4]: 4.3 µM
IC50 [2, 5]: 2.8 µM
IC50 [3, 6]: 3.6 µM

CN(C)CC(=O)Nc1cc(CS(=O)(=O)CCOP(=O)(N(CCCl)CCCl)N(CCCl)CCCl)cc(CS(=O)(=O)CCOP(=O)(N(CCCl)CCCl)N(CCCl)CCCl)c1 [Compound 20B]
IC50 [1, 4]: 5.1 µM
IC50 [2, 5]: 4 µM
IC50 [3, 6]: 33.3 µM

O=C(CS(=O)(=O)CCOP(=O)(N(CCCl)CCCl)N(CCCl)CCCl)Nc1ccc([N+](=O)[O-])c(C(F)(F)F)c1 [Compound 21A]
IC50 [1, 4]: 4.2 µM
IC50 [2, 5]: 2.8 µM
IC50 [3, 6]: 6.3 µM

O=C(Nc1cc(CS(=O)(=O)CCOP(=O)(N(CCCl)CCCl)N(CCCl)CCCl)cc(CS(=O)(=O)CCOP(=O)(N(CCCl)CCCl)N(CCCl)CCCl)c1)C1CCCNC1 (stereo not drawn) [Compound 21B]
IC50 [1, 4]: 14.9 µM
IC50 [2, 5]: 4.1 µM
IC50 [3, 6]: 132 µM

CN1CCN(C(=O)CS(=O)(=O)CCOP(=O)(N(CCCl)CCCl)N(CCCl)CCCl)CC1 [Compound 22A]
IC50 [1, 4]: 23.7 µM
IC50 [2, 5]: 8.4 µM
IC50 [3, 6]: 38.5 µM

O=C(Nc1cc(CS(=O)(=O)CCOP(=O)(N(CCCl)CCCl)N(CCCl)CCCl)cc(CS(=O)(=O)CCOP(=O)(N(CCCl)CCCl)N(CCCl)CCCl)c1)c1cccnc1 [Compound 22B]
IC50 [1, 4]: 7 µM
IC50 [2, 5]: 2.5 µM
IC50 [3, 6]: 40.8 µM

O=P(OCCS(=O)(=O)c1cccc2c(S(=O)(=O)CCOP(=O)(N(CCCl)CCCl)N(CCCl)CCCl)cccc12)(N(CCCl)CCCl)N(CCCl)CCCl [Compound 23B, 1,5-di[[2-[[bis[bis(2-chloroethyl)amino]phosphinyl]oxy]ethyl]sulfonyl]naphthalene]
IC50 ([1]; Homo sapiens, MX1, 72 h): 1.1 µM
IC50 ([2]; Homo sapiens, DLD-1, 96 h): 0.7 µM
IC50 ([3]; Homo sapiens, LNCaP, 96 h): 3.8 µM

O=C(CS(=O)(=O)CCOP(=O)(N(CCCl)CCCl)N(CCCl)CCCl)Nc1ccccn1 [Compound 24A]
IC50 [1, 4]: 11.2 µM
IC50 [2, 5]: 5.5 µM
IC50 [3, 6]: 12.1 µM

CC(C)(C)OC(=O)[C@@H](Cc1ccccc1)NC(=O)CS(=O)(=O)CCOP(=O)(N(CCCl)CCCl)N(CCCl)CCCl [Compound 25A]
IC50 [1, 4]: 5.6 µM
IC50 [2, 5]: 3.7 µM
IC50 [3, 6]: 18.9 µM

O=C(CS(=O)(=O)CCOP(=O)(N(CCCl)CCCl)N(CCCl)CCCl)NC(Cc1ccccc1)C(=O)O (stereo not drawn) [Compound 26A]
IC50 [1, 4]: 29.4 µM
IC50 [2, 5]: 8.4 µM
IC50 [3, 6]: 76.8 µM

CC(C)(C)OC(=O)NCCCC[C@H](NC(=O)CS(=O)(=O)CCOP(=O)(N(CCCl)CCCl)N(CCCl)CCCl)C(=O)OC(C)(C)C [Compound 27A]
IC50 [1, 4]: 6.2 µM
IC50 [2, 5]: 3.6 µM
IC50 [3, 6]: 15.5 µM

CN(CC(=O)OC(C)(C)C)C(=O)CS(=O)(=O)CCOP(=O)(N(CCCl)CCCl)N(CCCl)CCCl [Compound 28A]
IC50 [1, 4]: 9 µM
IC50 [2, 5]: 5.1 µM
IC50 [3, 6]: 35.2 µM

O=C(O)CCS(=O)(=O)CCOP(=O)(N(CCCl)CCCl)N(CCCl)CCCl [Compound 29A]
IC50 [1, 4]: 23 µM
IC50 [2, 5]: 11.5 µM
IC50 [3, 6]: 66.4 µM

COC(=O)c1ccc(NC(=O)CS(=O)(=O)CCOP(=O)(N(CCCl)CCCl)N(CCCl)CCCl)cc1 [Compound 30A]
IC50 [1, 4]: 9.1 µM
IC50 [2, 5]: 6.5 µM
IC50 [3, 6]: 13.2 µM

N[C@@H](CCCNC(=O)CS(=O)(=O)CCOP(=O)(N(CCCl)CCCl)N(CCCl)CCCl)C(=O)O [Compound 32A]
IC50 [1, 4]: 41.2 µM
IC50 [2, 5]: 11.3 µM
IC50 [3, 6]: 177 µM

O=C(CS(=O)(=O)CCOP(=O)(N(CCCl)CCCl)N(CCCl)CCCl)Nc1ccc(C(=O)O)cc1 [Compound 33A]
IC50 [1, 4]: 20.6 µM
IC50 [2, 5]: 8.6 µM
IC50 [3, 6]: 98.6 µM
